These results are taken from ChEMBL document CHEMBL1133078, “Isoxazolines and isoxazoles as factor Xa inhibitors” (Bioorg Med Chem Lett, 2000).

The target in one data set is Prothrombin (Homo sapiens, UniProt P00734). In words: Inhibitory activity against thrombin.
The species named for another data set is Oryctolagus cuniculus. In words: Concentration required to diminish the clot size by 50% in rabbit A-V shunt model of thrombosis. The data set is classed as functional.
The target in data set [1] is T1, Coagulation factor X (Oryctolagus cuniculus, UniProt O19045).
T1 sequence (O19045 whole entry): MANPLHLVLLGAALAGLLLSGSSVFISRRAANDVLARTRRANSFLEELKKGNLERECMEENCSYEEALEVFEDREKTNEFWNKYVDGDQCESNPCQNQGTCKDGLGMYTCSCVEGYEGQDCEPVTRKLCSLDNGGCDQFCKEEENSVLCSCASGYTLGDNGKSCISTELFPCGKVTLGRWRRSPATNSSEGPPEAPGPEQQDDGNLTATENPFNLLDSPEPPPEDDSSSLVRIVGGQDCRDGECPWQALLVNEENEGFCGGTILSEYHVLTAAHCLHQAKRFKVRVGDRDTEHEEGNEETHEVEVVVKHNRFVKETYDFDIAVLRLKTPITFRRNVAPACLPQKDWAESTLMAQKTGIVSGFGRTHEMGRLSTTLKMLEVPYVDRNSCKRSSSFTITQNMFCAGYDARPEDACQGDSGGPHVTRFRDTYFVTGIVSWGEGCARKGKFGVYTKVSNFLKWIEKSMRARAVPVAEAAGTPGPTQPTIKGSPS
In words: Inhibitory activity against rabbit Coagulation factor X.

In a further data set the test system is Canis familiaris. In words: Volume of distribution after intravenous administration of 1 mg/kg/h in dog. On the set-up: route intravenous. Particulars: in vivo. Format: ADME, organism-based, Canis lupus familiaris.
Data set [2] can be described thus: Half-life after intravenous administration of 1 mg/kg/h in dog. The data set is classed as ADME, organism-based, Canis lupus familiaris. On the set-up: route intravenous. Particulars: in vivo.
For a further data set, the target named is T2, Serine protease 1 (Bos taurus, UniProt P00760).
T2 sequence (P00760 whole entry): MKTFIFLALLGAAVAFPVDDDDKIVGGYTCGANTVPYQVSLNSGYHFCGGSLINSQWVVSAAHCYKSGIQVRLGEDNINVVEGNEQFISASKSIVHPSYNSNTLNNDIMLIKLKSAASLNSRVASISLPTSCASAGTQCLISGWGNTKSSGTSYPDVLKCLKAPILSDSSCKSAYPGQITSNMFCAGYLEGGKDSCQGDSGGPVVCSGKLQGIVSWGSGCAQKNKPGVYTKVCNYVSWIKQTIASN
In words: Inhibitory activity against trypsin.

Data set [3] is described as follows: Clearance value of compound was determined after intravenous administration of 1 mg/kg/h in dog. Format: ADME, organism-based, Canis lupus familiaris. On the set-up: route intravenous. Particulars: in vivo.
Data set [4] has as its target Coagulation factor X (Homo sapiens, UniProt P00742). In words: Inhibition of human Coagulation factor X.
Data set [5] in a line: Volume of distribution after intravenous administration of 1 mg/kg/h in dog. To be noted: in vivo.

Each structure is given as a SMILES string.

Sequence of Coagulation factor X (Homo sapiens, UniProt P00742) (P00742 41-179 limits assumed): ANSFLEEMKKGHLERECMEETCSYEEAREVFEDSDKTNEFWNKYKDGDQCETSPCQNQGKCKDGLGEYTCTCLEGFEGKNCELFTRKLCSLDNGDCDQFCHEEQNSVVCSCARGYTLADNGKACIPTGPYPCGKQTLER
Sequence of Coagulation factor X (Homo sapiens, UniProt P00742) (P00742 235-488 limits assumed): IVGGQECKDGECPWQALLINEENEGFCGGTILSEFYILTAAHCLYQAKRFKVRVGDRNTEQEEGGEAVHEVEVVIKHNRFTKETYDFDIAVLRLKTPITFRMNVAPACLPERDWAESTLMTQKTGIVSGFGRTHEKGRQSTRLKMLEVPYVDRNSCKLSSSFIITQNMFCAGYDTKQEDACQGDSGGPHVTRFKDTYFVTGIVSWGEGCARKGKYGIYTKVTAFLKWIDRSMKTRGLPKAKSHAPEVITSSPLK

On to `N=C(N)c1cccc(-c2nocc2C(=O)Nc2ccc(-c3ccccc3S(N)(=O)=O)cc2)c1`, for which the inhibitory constant (Ki) (in general, a measure of affinity in units of concentration, obtained from inhibition or displacement) on Prothrombin came out at 2000 nM; on Coagulation factor X [1], 0.4 nM; at Serine protease 1, 21 nM. This compound came in with an ID50 in the data set listed under Oryctolagus cuniculus of 0.31 µM/h/kg. In addition, the distribution volume (Vdss) (in general, the apparent volume that relates the amount in the body to the concentration in plasma or blood) with Canis familiaris came to 1.7 L/kg. Moreover, in data set [2], the half-life (usually the time in which the quantity being followed falls by half) was 4.3 h. Moreover, the clearance (as a rule, the volume of plasma or blood freed of the substance per unit of time) in data set [3] is 25 mL/min/kg.
`N=C(N)c1cccc(C2=NOC(Cn3cnnn3)(C(=O)Nc3ccc(-c4ccccc4S(N)(=O)=O)cc3)C2)c1` (stereo not drawn) came in with a Ki on Serine protease 1 of 91 nM.
In the case of `N=C(N)c1cccc(-c2noc(CO)c2C(=O)Nc2ccc(-c3ccccc3S(N)(=O)=O)cc2)c1`, the values for the Ki on Prothrombin, on Coagulation factor X [4] and at Serine protease 1 were 1900 nM, 0.5 nM and 50 nM, respectively.
As for `CS(=O)(=O)c1ccccc1-c1ccc(NC(=O)c2conc2-c2cccc(C(=N)N)c2)cc1`, the inhibitory constant (Ki) at Prothrombin was determined as 540 nM; at Coagulation factor X [4] it was 0.1 nM; at Serine protease 1, 25 nM.
In the case of `COCc1onc(-c2cccc(C(=N)N)c2)c1C(=O)Nc1ccc(-c2ccccc2S(N)(=O)=O)cn1`, the inhibitory constant (Ki) on Prothrombin turned out to be 12000 nM; at Serine protease 1, 200 nM.
Consider `N=C(N)c1cccc(C2=NO[C@H](Cn3cnnn3)[C@H]2C(=O)Nc2ccc(-c3ccccc3S(N)(=O)=O)cc2)c1`, for which the inhibition constant (Ki) at Prothrombin came to 5700 nM; at Coagulation factor X [4], 2.3 nM; on Serine protease 1, 180 nM. The compound further showed a Vdss with Canis familiaris of 0.24 L/kg. This compound also had a half-life in [2] of 1 h. Further, in [3], the clearance is 8.17 mL/min/kg.
In turn, `COCC1(C(=O)Nc2ccc(-c3ccccc3S(N)(=O)=O)cc2)CC(c2cccc(C(=N)N)c2)=NO1` (stereo not drawn) yielded an ID50 in the data set filed under Oryctolagus cuniculus of 0.26 µM/h/kg. Also, the Ki stood at 0.8 nM at Coagulation factor X [1] and 70 nM at Serine protease 1.
Regarding `COC[C@H]1ON=C(c2cccc(C(=N)N)c2)[C@@H]1C(=O)Nc1ccc(-c2ccccc2S(N)(=O)=O)cc1`, the Ki on Prothrombin amounted to 4600 nM; at Coagulation factor X [1], 0.64 nM; at Serine protease 1 it was 190 nM. In addition, in the data set filed under Oryctolagus cuniculus, the ID50 was determined as 0.21 µM/h/kg. Further, the volume of distribution (Vdss) in data set [5] was 0.38 L/kg. The compound also had a half-life in [2] of 1.2 h. The compound also gave a clearance in data set [3] of 16.5 mL/min/kg.
Take `N=C(N)c1cccc(-c2noc(C(F)(F)F)c2C(=O)Nc2ccc(-c3ccccc3S(N)(=O)=O)cc2)c1`: the Ki on Prothrombin amounted to 11000 nM; at Coagulation factor X [4], 9.5 nM; on Serine protease 1, 400 nM.
`COCc1onc(-c2cccc(C(=N)N)c2)c1C(=O)Nc1ccc(-c2ccccc2S(N)(=O)=O)cc1`: the Ki is 3800 nM on Prothrombin, 0.63 nM on Coagulation factor X [4] and 76 nM on Serine protease 1. In the data set with Canis familiaris, this compound displayed a Vdss of 0.85 L/kg. For the same compound, in [2], the half-life is 1.2 h. The same compound had a clearance in [3] of 28.3 mL/min/kg.
Take `N=C(N)c1cccc(-c2noc(N)c2C(=O)Nc2ccc(-c3ccccc3S(N)(=O)=O)cc2)c1`: the Ki at Prothrombin stood at 4000 nM; at Coagulation factor X [4], 3.4 nM; on Serine protease 1, 117 nM.
Take `C[C@H]1ON=C(c2cccc(C(=N)N)c2)[C@@H]1C(=O)Nc1ccc(-c2ccccc2S(N)(=O)=O)cc1`: the Ki on Prothrombin came to 4500 nM; at Coagulation factor X [4], 1.8 nM; on Serine protease 1, 110 nM.
`CC1(C(=O)Nc2ccc(-c3ccccc3S(N)(=O)=O)cc2)CC(c2cccc(C(=N)N)c2)=NO1` (stereo not drawn) came in with an inhibitory constant (Ki) on Serine protease 1 of 120 nM.
